The source of these data is patent US20030144355A1, “Stabilisation of pigments and polyunsaturated oils and oil concentrates” (priority 1999, published 2003).

Molecules are shown by their SMILES.

Data set [1] is described as follows: weight-gain oxidative stability test of treated fish oil (induction period), Example 2. To be noted: for induction period (IP; time before rapid oxygen uptake): stored at about 35° C. It is filed as physicochemical. The procedure:
The oxidative stability of oils can be compared by accelerated tests, such as the weight-gain method, where oil samples are stored at elevated temperatures and oxygen atmosphere. The weight increase due to oxygen absorption is measured and plotted against time. At a certain time, depending on the oils resistance to oxidation, weight increase will be rapid, and the time before this happens is noted as the oils induction time (IP).
0.083 moles of amine/amide was added to 95 g of a fish oil, which was progressively heated to 90° C. (A series) or 140° C. (B series) during agitation to dissolve the substances in the oil. After 30 minutes at this temperature, the oil was cooled and filtered.
Three 3-g samples of filtered untreated oil, and three 3-g samples of filtered oil from each of the treatments described in table 1, were placed in identical petri dishes (60 mm, with loose fitting lids) and accurately weighed. The petri dishes were placed in an oven at about 35° C., and the weight increase related to oxygen uptake (oxidation) was recorded by weighing 3 times/week.
The results given in FIG. 4 and in FIG. 5 indicates large differences in stability as measured by induction periods (IP; i.e. the time before rapid oxygen uptake), ranging from 17 days (oils heated to 90° C. or 140° C. without any substance added) and 19 days (untreated oil), to 95 days (oils treated with hexylamine at 90° C., or allylurea at 140° C., or N,N′-dimethylurea at 140° C.).

The next data set in a line: solubility in oil. It is filed as physicochemical. To be noted: ambient temperature.
[2] abbreviates: fish oil treated with 0.083 moles per 95 g oil at 140° C. for 30 minutes.

Take `CCCCCCN` [A3, Hexylamine]: in data set [1] (fish oil treated at 90° C., experiment continued for another 70 days, about 35° C.), the “stability in prolonged storage” value is “still were stable”. Moreover, the “induction period (IP; time before rapid oxygen uptake)” value (“induction period” below) in data set [1] (fish oil treated with 0.083 moles per 95 g oil at 90° C. for 30 minutes) is listed as 95 days.

In the case of `CNC(=O)NC` [B4, N,N′-dimethylurea], in data set [1] (fish oil treated at 140° C., experiment continued for another 70 days, about 35° C.), the “day of rapid weight increase, prolonged storage” value worked out at 135 days. The “induction period” value in data set [1] (setting [2]) came to 95 days.

Regarding `C=CCNC(N)=O` [allylurea, Allylurea], the “induction period” value in data set [1] (setting [2]) was determined as 95 days.

Regarding `NC(N)=O` [urea], the solubility in oil result in the data set “solubility in oil” was “approx. 1 g per kg oil”.
